Assay results as given in ChEMBL document CHEMBL1136147, “Sub-nanomolar hMC1R agonists by end-capping of the melanocortin tetrapeptide His-D-Phe-Arg-Trp-NH(2)” (Bioorg Med Chem Lett, 2003).

Tests used:
[1] = biological target: T1, Melanocyte-stimulating hormone receptor (Homo sapiens, UniProt Q01726); assay: Binding affinity towards human Melanocortin 1 receptor (hMC1R)
[2] = biological target: T2, Melanocortin receptor 4 (Homo sapiens, UniProt P32245); assay: In vitro agonist potency was evaluated in HEK293 cells transfected with human melanocortin receptor (hMC4R); format: functional, cell-based
[3] = biological target: T3, Melanocortin receptor 3 (Homo sapiens, UniProt P41968); assay: In vitro agonist potency was evaluated in HEK293 cells transfected with human melanocortin receptor (hMC3R); format: functional, cell-based
[4] = biological target: T1, Melanocyte-stimulating hormone receptor; assay: In vitro agonist potency was evaluated in HEK293 cells transfected with human melanocortin receptor (hMC1R); format: functional, cell-based
[5] = biological target: T2, Melanocortin receptor 4; assay: Binding affinity towards human melanocortin 4 receptor (hMC4R)
[6] = biological target: T3, Melanocortin receptor 3; assay: Binding affinity towards human Melanocortin 3 receptor (hMC3R)

T3 sequence (P41968 whole entry): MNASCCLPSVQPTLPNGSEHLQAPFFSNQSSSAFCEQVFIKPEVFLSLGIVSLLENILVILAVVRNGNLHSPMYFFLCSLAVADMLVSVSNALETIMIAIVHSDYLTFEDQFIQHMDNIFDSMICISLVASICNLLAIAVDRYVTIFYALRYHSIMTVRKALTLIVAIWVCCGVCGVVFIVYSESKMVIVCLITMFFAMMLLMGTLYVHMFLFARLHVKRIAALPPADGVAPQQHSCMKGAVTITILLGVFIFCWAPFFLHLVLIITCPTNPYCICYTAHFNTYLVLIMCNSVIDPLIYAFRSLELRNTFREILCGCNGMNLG
T1 sequence (Q01726 whole entry): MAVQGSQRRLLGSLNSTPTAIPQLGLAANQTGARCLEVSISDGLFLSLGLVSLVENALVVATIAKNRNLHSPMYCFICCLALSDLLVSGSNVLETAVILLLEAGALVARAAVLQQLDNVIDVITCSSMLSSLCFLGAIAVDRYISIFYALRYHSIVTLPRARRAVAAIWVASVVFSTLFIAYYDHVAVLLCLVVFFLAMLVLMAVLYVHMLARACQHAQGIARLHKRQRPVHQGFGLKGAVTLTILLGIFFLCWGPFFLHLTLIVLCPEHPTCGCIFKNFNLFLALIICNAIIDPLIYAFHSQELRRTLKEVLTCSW
T2 sequence (P32245 whole entry): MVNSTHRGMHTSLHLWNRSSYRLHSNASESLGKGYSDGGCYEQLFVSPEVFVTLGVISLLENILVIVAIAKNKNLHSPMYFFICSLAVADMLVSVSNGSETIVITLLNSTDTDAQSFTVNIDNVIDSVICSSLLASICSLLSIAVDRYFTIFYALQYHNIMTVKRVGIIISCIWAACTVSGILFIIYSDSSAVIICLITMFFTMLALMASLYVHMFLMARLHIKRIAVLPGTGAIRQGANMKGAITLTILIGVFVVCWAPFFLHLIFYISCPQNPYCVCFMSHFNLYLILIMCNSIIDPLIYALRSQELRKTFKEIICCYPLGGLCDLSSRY

Compound `N=C(N)NCCC[C@H](NC(=O)[C@H](Cc1ccccc1)NC(=O)[C@H](Cc1c[nH]cn1)NC(=O)Cc1ccccc1)C(=O)N[C@@H](Cc1c[nH]c2ccccc12)C(N)=O` has a Ki [1] of 17.5 nM, an EC50 [2] of 13 nM and an EC50 [3] of 28 nM. The EC50 [4] was 2 nM, the Ki [5] was 100 nM and the Ki [6] was 66.5 nM.
Work on `CCCC(=O)N[C@@H](Cc1cnc[nH]1)C(=O)N[C@@H](Cc1ccccc1)C(=O)N[C@@H](CCCNC(=N)N)C(=O)N[C@@H](Cc1c[nH]c2ccccc12)C(N)=O` yielded a Ki [1] of 37.5 nM, an EC50 [2] of 38.5 nM and an EC50 [3] of 93.3 nM. It also gave an EC50 [4] of 4.5 nM, a Ki [5] of 150 nM and a Ki [6] of 580 nM.
For `N=C(N)NCCC[C@H](NC(=O)[C@H](Cc1ccccc1)NC(=O)[C@H](Cc1c[nH]cn1)NC(=O)COc1ccc(Cl)cc1)C(=O)N[C@@H](Cc1c[nH]c2ccccc12)C(N)=O`, the Ki [1] was 6 nM, the EC50 [2] was 11.5 nM and the EC50 [3] was 6 nM. For the same compound, the EC50 [4] was 2 nM, the Ki [5] was 68 nM and the Ki [6] was 110 nM.
For `CCCCC(=O)N[C@@H](Cc1cnc[nH]1)C(=O)N[C@@H](Cc1ccccc1)C(=O)N[C@@H](CCCNC(=N)N)C(=O)N[C@@H](Cc1c[nH]c2ccccc12)C(N)=O`, the Ki [1] was 20.5 nM, the EC50 [2] was 26.5 nM and the EC50 [3] was 45 nM. The EC50 [4] was 2 nM, the Ki [5] was 120 nM and the Ki [6] was 170 nM.
For `COCC(=O)N[C@@H](Cc1cnc[nH]1)C(=O)N[C@@H](Cc1ccccc1)C(=O)N[C@@H](CCCNC(=N)N)C(=O)N[C@@H](Cc1c[nH]c2ccccc12)C(N)=O`, the Ki [1] was 91.5 nM, the EC50 [2] was 42.5 nM and the EC50 [3] was 570 nM. The EC50 [4] was 9.5 nM, the Ki [5] was 350 nM and the Ki [6] was 380 nM.
In the case of `N=C(N)NCCC[C@H](NC(=O)[C@H](Cc1ccccc1)NC(=O)[C@H](Cc1c[nH]cn1)NC(=O)CCc1ccccc1)C(=O)N[C@@H](Cc1c[nH]c2ccccc12)C(N)=O`, the Ki [1] is reported as 6 nM, the EC50 [2] is reported as 20 nM and the EC50 [3] is reported as 17 nM. For the same compound, the EC50 [4] was 0.5 nM, the Ki [5] was 49 nM and the Ki [6] was 65 nM.
Work on `N=C(N)NCCC[C@H](NC(=O)[C@H](Cc1ccccc1)NC(=O)[C@H](Cc1cnc[nH]1)NC(=O)CCCO)C(=O)N[C@@H](Cc1c[nH]c2ccccc12)C(N)=O` yielded a Ki [1] of 34 nM, an EC50 [2] of 21.3 nM and an EC50 [3] of 640 nM. For the same compound, the EC50 [4] was 13.7 nM, the Ki [5] was 100 nM and the Ki [6] was 440 nM.
For `N=C(N)NCCC[C@H](NC(=O)[C@H](Cc1ccccc1)NC(=O)[C@H](Cc1cnc[nH]1)NC(=O)Cc1ccc(Cl)cc1)C(=O)N[C@@H](Cc1c[nH]c2ccccc12)C(N)=O`, the Ki [1] was 3.5 nM, the EC50 [2] was 7.5 nM and the EC50 [3] was 9.3 nM. It also gave an EC50 [4] of 9.5 nM, a Ki [5] of 5 nM and a Ki [6] of 20 nM.
With `N=C(N)NCCC[C@H](NC(=O)[C@H](Cc1ccccc1)NC(=O)[C@H](Cc1c[nH]cn1)NC(=O)CO)C(=O)N[C@@H](Cc1c[nH]c2ccccc12)C(N)=O` the Ki [1] was 125 nM, the EC50 [2] was 53 nM and the EC50 [3] was 300 nM. It also gave an EC50 [4] of 7 nM, a Ki [5] of 440 nM and a Ki [6] of 630 nM.
With `N=C(N)NCCC[C@H](NC(=O)[C@H](Cc1ccccc1)NC(=O)[C@H](Cc1cnc[nH]1)NC(=O)C(N)=O)C(=O)N[C@@H](Cc1c[nH]c2ccccc12)C(N)=O` the Ki [1] was 62 nM, the EC50 [2] was 16.5 nM and the EC50 [3] was 58 nM. For the same compound, the EC50 [4] was 7 nM, the Ki [5] was 140 nM and the Ki [6] was 160 nM.
With `N=C(N)NCCC[C@H](NC(=O)[C@H](Cc1ccccc1)NC(=O)[C@@H](N)Cc1cnc[nH]1)C(=O)N[C@@H](Cc1c[nH]c2ccccc12)C(N)=O` the Ki [1] was 51 nM, the EC50 [2] was 29.7 nM and the EC50 [3] was 350 nM. It also gave an EC50 [4] of 31.8 nM, a Ki [5] of 180 nM and a Ki [6] of 890 nM.
`N=C(N)NCCC[C@H](NC(=O)[C@H](Cc1ccccc1)NC(=O)[C@H](Cc1cnc[nH]1)NC(=O)C1CC1)C(=O)N[C@@H](Cc1c[nH]c2ccccc12)C(N)=O` was tested, and the Ki [1] was 43 nM, the EC50 [2] was 20.5 nM and the EC50 [3] was 71 nM. It also gave an EC50 [4] of 3.5 nM, a Ki [5] of 87 nM and a Ki [6] of 210 nM.
Compound `CC(C)C(=O)N[C@@H](Cc1cnc[nH]1)C(=O)N[C@@H](Cc1ccccc1)C(=O)N[C@@H](CCCNC(=N)N)C(=O)N[C@@H](Cc1c[nH]c2ccccc12)C(N)=O` has a Ki [1] of 40 nM, an EC50 [2] of 24 nM and an EC50 [3] of 130 nM. For the same compound, the EC50 [4] was 7 nM, the Ki [5] was 97.5 nM and the Ki [6] was 280 nM.
In the case of `N=C(N)NCCC[C@H](NC(=O)[C@H](Cc1ccccc1)NC(=O)[C@H](Cc1c[nH]cn1)NC(=O)CC(F)(F)F)C(=O)N[C@@H](Cc1c[nH]c2ccccc12)C(N)=O`, the Ki [1] is reported as 63.5 nM, the EC50 [2] is reported as 22.5 nM and the EC50 [3] is reported as 120 nM. The EC50 [4] was 6.5 nM, the Ki [5] was 170 nM and the Ki [6] was 540 nM.
`CS(=O)(=O)N[C@@H](Cc1c[nH]cn1)C(=O)N[C@@H](Cc1ccccc1)C(=O)N[C@@H](CCCN=C(N)N)C(=O)N[C@@H](Cc1c[nH]c2ccccc12)C(N)=O` showed a Ki [1] of 260 nM, an EC50 [2] of 21.5 nM and an EC50 [3] of 840 nM. It also gave an EC50 [4] of 88 nM, a Ki [5] of 170 nM and a Ki [6] of 1900 nM.
`CSCC(=O)N[C@@H](Cc1cnc[nH]1)C(=O)N[C@@H](Cc1ccccc1)C(=O)N[C@@H](CCCNC(=N)N)C(=O)N[C@@H](Cc1c[nH]c2ccccc12)C(N)=O` gave a Ki [1] of 57.5 nM, an EC50 [2] of 41 nM and an EC50 [3] of 230 nM. For the same compound, the EC50 [4] was 9 nM, the Ki [5] was 210 nM and the Ki [6] was 230 nM.
For `N=C(N)NCCC[C@H](NC(=O)[C@H](Cc1ccccc1)NC(=O)[C@H](Cc1c[nH]cn1)NC(=O)c1ccccc1)C(=O)N[C@@H](Cc1c[nH]c2ccccc12)C(N)=O`, the Ki [1] was 30 nM, the EC50 [2] was 28 nM and the EC50 [3] was 98.3 nM. It also gave an EC50 [4] of 6.8 nM, a Ki [5] of 160 nM and a Ki [6] of 260 nM.
`N=C(N)NCCC[C@H](NC(=O)[C@H](Cc1ccccc1)NC(=O)[C@H](Cc1cnc[nH]1)NS(=O)(=O)c1ccc(Cl)cc1)C(=O)N[C@@H](Cc1c[nH]c2ccccc12)C(N)=O` gave a Ki [1] of 170 nM, an EC50 [2] of 11 nM and an EC50 [3] of 390 nM. The EC50 [4] was 33.3 nM, the Ki [5] was 66.5 nM and the Ki [6] was 440 nM.
For `CCC(=O)N[C@@H](Cc1c[nH]cn1)C(=O)N[C@@H](Cc1ccccc1)C(=O)N[C@@H](CCCN=C(N)N)C(=O)N[C@@H](Cc1c[nH]c2ccccc12)C(N)=O`, the Ki [1] was 47.5 nM, the EC50 [2] was 38.5 nM and the EC50 [3] was 450 nM. For the same compound, the EC50 [4] was 7.5 nM, the Ki [5] was 160 nM and the Ki [6] was 540 nM.
Compound `CC(C)(C)C(=O)N[C@@H](Cc1cnc[nH]1)C(=O)N[C@@H](Cc1ccccc1)C(=O)N[C@@H](CCCNC(=N)N)C(=O)N[C@@H](Cc1c[nH]c2ccccc12)C(N)=O` has a Ki [1] of 43 nM, an EC50 [2] of 14.5 nM and an EC50 [3] of 13 nM. For the same compound, the EC50 [4] was 5 nM, the Ki [5] was 160 nM and the Ki [6] was 130 nM.
Compound `NC(=O)[C@H](Cc1c[nH]c2ccccc12)NC(=O)[C@H](CCCN=C(N)N)NC(=O)[C@@H](Cc1ccccc1)NC(=O)[C@H](Cc1cnc[nH]1)NC(=O)CCCc1ccccc1` has a Ki [1] of 0.006 nM, an EC50 [4] of 0.009 nM and a Ki [6] of 13.5 nM.
`N=C(N)NCCC[C@H](NC(=O)[C@H](Cc1ccccc1)NC(=O)[C@H](Cc1c[nH]cn1)NC(=O)C(O)Cc1ccccc1)C(=O)N[C@@H](Cc1c[nH]c2ccccc12)C(N)=O` (some centres undefined) gave a Ki [1] of 11.5 nM, an EC50 [2] of 6.3 nM and an EC50 [3] of 40.5 nM. The EC50 [4] was 8 nM, the Ki [5] was 15.5 nM and the Ki [6] was 140 nM.
In the case of `N#CCC(=O)N[C@@H](Cc1c[nH]cn1)C(=O)N[C@@H](Cc1ccccc1)C(=O)N[C@@H](CCCNC(=N)N)C(=O)N[C@@H](Cc1c[nH]c2ccccc12)C(N)=O`, the Ki [1] is reported as 86.5 nM, the EC50 [2] is reported as 18 nM and the EC50 [3] is reported as 160 nM. For the same compound, the EC50 [4] was 8 nM, the Ki [5] was 110 nM and the Ki [6] was 350 nM.
Compound `CC(=O)N[C@@H](Cc1c[nH]cn1)C(=O)N[C@@H](Cc1ccccc1)C(=O)N[C@@H](CCCN=C(N)N)C(=O)N[C@@H](Cc1c[nH]c2ccccc12)C(N)=O` has a Ki [1] of 37 nM, an EC50 [3] of 170 nM and an EC50 [4] of 13 nM. The Ki [6] was 770 nM.
